Marks after values point to notes of the source that are not given here.
What was measured:
[1] = tested on: tumor-bearing mice (mice ascites tumor s180 cells); assay: Effect on chemotherapy-induced bone marrow suppression in tumor-bearing mice (routine blood test); type: in vivo, Kunming mice; conditions: after 10 days once daily, docetaxel 75 mg/m^2/d iv, Tegafur/Gimeracil/Oteracil capsules 222.2 mg/m^2/d intragastric, icaritin 10 mg/kg/d iv
Procedure: Mice ascites tumor s180 cells were conventionally incubated in 1640 culture medium, at 37° C., 5% CO2, and passaged once every two days in average. The cells in the logarithmic growth phase were prepared into a single-cell suspension having a density of 3.0×10^7 cells/ml with normal saline, which was injected into the abdominal cavities of mice under sterile conditions. Seven days after inoculation, significant swelling of the abdominal cavities of mice can be seen. As this time, the mice were executed by cervical vertebra luxation, put into a beaker containing 75% ethanol and soaked for 2-3 minutes. The sterilized mice were placed into an ultraclean bench, and the abdomens were exposed. The ascites was drawn with a sterile syringe and put into a sterile reagent bottle for further use. The above ascites was counted with trypan blue, diluted with normal saline to adjust to 2.0×10^7 cells/ml, and inoculated at the right armpit of the mice with 0.2 ml for each mouse. The inoculated mice were randomly divided into 6 groups, with 10 animals in each group and half male and half female. Group 1, the model control group: the test animals were intraperitoneally injected with0.9% normal saline (same for the following experiments); Group 2, the docetaxel group: 75 mg/m^2/d of docetaxel; Group 3, the Tegafur, Gimeracil and Oteracil Potassium Capsules group: 222.2 mg/m^2/d of Tegafur, Gimeracil and Oteracil Potassium Capsules; Group 4, the icaritin group: 10 mg/kg/d of the icaritin microemulsion formulation; Group 5, the D+I group (docetaxel+icaritin group): 75 mg/m^2/d of docetaxel+[…] of icaritin; Group 6, the T +I group (Tegafur, Gimeracil and Oteracil Potassium Capsules+icaritin group): 222.2 mg/m^2/d of Tegafur, Gimeracil and Oteracil Potassium Capsules+10 mg/kg/d of icaritin. Docetaxel and icaritin were administered by tail intravenous injection with an administration volume of 10 ml/kg for each. Tegafur, Gimeracil and Oteracil Potassium Capsules was intragastrically administered with an administration volume of 40 ml/kg. Each group was administered once a day for totally 10 days. During the test, the animals were observed every day for their food and water uptake, survival conditions and behaviors, and measured for their body weights every day. After the test was ended, the mice were anaesthetized and anatomized. Blood was collected from abdominal aorta for routine blood test, and the total number of white blood cells, the total number of platelets and the total number of neutrophils were determined.

[2] = design: species or system Kunming mice; conditions: mouse, in vivo
Procedure: Mice ascites tumor s180 cells were conventionally incubated in 1640 culture medium, at 37° C., 5% CO2, and passaged once every two days in average. The cells in the logarithmic growth phase were prepared into a single-cell suspension having a density of 3.0×10^7 cells/ml with normal saline, which was injected into the abdominal cavities of mice under sterile conditions. Seven days after inoculation, significant swelling of the abdominal cavities of mice can be seen. As this time, the mice were executed by cervical vertebra luxation, put into a beaker containing 75% ethanol and soaked for 2-3 minutes. The sterilized mice were placed into an ultraclean bench, and the abdomens were exposed. The ascites was drawn with a sterile syringe and put into a sterile reagent bottle for further use. The above ascites was counted with trypan blue, diluted with normal saline to adjust to 2.0×10^7 cells/ml, and inoculated at the right armpit of the mice with 0.2 ml for each mouse.
The inoculated mice were randomly divided into 6 groups, with 10 animals in each group and half male and half female.
Docetaxel and icaritin were administered by tail intravenous injection with an administration volume of 10 ml/kg for each. Tegafur, Gimeracil and Oteracil Potassium Capsules was intragastrically administered with an administration volume of 40 ml/kg. Each group was administered once a day for totally 10 days. During the test, the animals were observed every day for their food and water uptake, survival conditions and behaviors, and measured for their body weights every day. After the test was ended, the mice were anaesthetized and anatomized. Blood was collected from abdominal aorta for routine blood test, and the total number of white blood cells, the total number of platelets and the total number of neutrophils were determined.

[3] = tested on: chronic ITP model rats; assay: Platelet count in chronic ITP model rats (anti-rat platelet serum); type: in vivo, Wistar rats; conditions: 2 mg/kg sc, 1 h after last administration
Procedure: Establishment of chronic ITP model: Wistar rats were selected to establish the model by injecting rabbit anti-rat platelet serum (APS). […] 50 Rats in which the model was successfully established were selected, weighed, and randomly divided into 5 groups, i.e. the model control group, the icariin group (positive control group), and the icaritin administration groups (high-, medium- and low-dose groups), with 10 rats in each group. The groups were administered with the following therapeutic agents, respectively.
The model control group: administered by subcutaneous injection with the same volume of normal saline;
(§1) The icariin group: administered by subcutaneous injection with 2 mg/kg of icariin;
(§2) The high-dose icaritin group: administered by subcutaneous injection with 10 mg/kg of the icaritin injection of Example 11;
(§3) The medium-dose icaritin group: administered by subcutaneous injection with 5 mg/kg of the icaritin injection of Example 11;
(§4) The low-dose icaritin group: administered by subcutaneous injection with 1 mg/kg of the icaritin injection of Example 11.
At 1 h after the last administration, blood was sampled from the venous plexus by inserting a disposable 20 μl blood collection tube into the inner canthus of the […].

[4] = tested on: model of thrombocytopenia induced by cyclophosphamide in mice; assay: Thrombocytopenia induced by cyclophosphamide in mice (platelets in peripheral blood); type: in vivo, Balb/C mice; conditions: cyclophosphamide 50 mg/kg ip model mice; 2 mg/kg sc once a day, 3 weeks; x ± s
Procedure: 72 Balb/C mice were selected, weighed, and randomly divided into 6 groups, i.e. the normal group, the model control group, the icariin group (positive control group), and the icaritin administration groups (high-, medium-, and low-dose groups), with 12 mice in each group. […] One week before starting to establish the model, each group was administered with the following therapeutic agents:
The normal group: administered subcutaneously with the same volume of normal saline;
The model control group: administered subcutaneously with the same volume of normal saline;
as §1, §2, §3, §4
Each group was administered once a day and fed normally. After consecutive administration for 3 weeks, the mice were anesthetized, and blood was sampled to measure the number of platelets and determine the effect of icaritin on the number of platelets (PLT) in the peripheral blood.

[5] = tested on: normal mice; assay: Clotting time in normal mice (capillary method); type: in vivo, Kunming mice; design: unit not given here; conditions: 2 mg/kg by injection, 3 days, 1 h after last administration
Procedure: 100 Kunming mice were randomly divided into 5 groups, i.e. the blank control group (normal saline group), the icariin group (positive control group), the high-dose icaritin group, the medium-dose icaritin group, and the low-dose icaritin group. Each group was administered as follows.
Blank control group: administered with the same volume of normal saline by subcutaneous injection;
Icariin group: administered with 2 mg/kg of icariin by injection;
High-dose icaritin group: administered with the injection of icaritin of Example 1 by subcutaneous injection at a dosage of 10 mg/kg;
Medium-dose icaritin group: administered with the injection of icaritin of Example 1 by subcutaneous injection at a dosage of 5 mg/kg;
Low-dose icaritin group: administered with the injection of icaritin of Example 1 by subcutaneous injection at a dosage of 1 mg/kg.
Measurement of the clotting time: The normal saline group (blank control group), the icariin group (positive control group), and the icaritin administration groups (high-, medium-, and low-dose groups) were designed as follows: 50 mice were selected, weighed and randomly divided into 5 groups, with 10 mice in each group. The animals were administered consecutively for 3 days. At 1 h after the last administration, blood was sampled from the venous plexus by inserting a disposable 20 μl blood collection tube into the inner canthus of the mouse to collect 20 μl of blood. A small fragment of capillary was broken off every 15 s for checking the occurrence of clotting filaments. The time from the blood sampling to the occurrence of fibrous protein filaments (clotting time) was recorded, and the results were shown in Table 5.

[6] = tested on: normal mice; assay: Bleeding time in normal mice (tail tip cut); type: in vivo, Kunming mice; design: unit not given here; conditions: 2 mg/kg by injection, 3 days, 1 h after last administration
Procedure: 100 Kunming mice were randomly divided into 5 groups, i.e. the blank control group (normal saline group), the icariin group (positive control group), the high-dose icaritin group, the medium-dose icaritin group, and the low-dose icaritin group. Each group was administered as follows. Blank control group: administered with the same volume of normal saline by subcutaneous injection; Icariin group: administered with 2 mg/kg of icariin by injection; High-dose icaritin group: administered with the injection of icaritin of Example 1 by subcutaneous injection at a dosage of 10 mg/kg; Medium-dose icaritin group: administered with the injection of icaritin of Example 1 by subcutaneous injection at a dosage of 5 mg/kg; Low-dose icaritin group: administered with the injection of icaritin of Example 1 by subcutaneous injection at a dosage of 1 mg/kg. Measurement of the bleeding time: The normal saline group (blank control group), the icariin group (positive control group), and the icaritin administration groups (high-, medium-, and low-dose groups) were designed as follows: 50 mice were selected, weighed, and randomly divided into 5 groups, with 10 mice in each group. The animals were administered consecutively for 3 days. At 1 h after the last administration, a filter paper was rolled to form a filter paper cartridge with a diameter similar to that of the mouse body, which was closed at one end. The mouse was allowed to climb into the cartridge. Then about 3 mm of tail tip of the mouse was cut with scissors. A stopwatch was started to record the time when the bleeding started. The tail tip of the mouse was point-contacted with a filter paper gently every 15 s until there was no blood or no blood can be seen.

[7] = tested on: active immune thrombocytopenia mice; assay: Active immune thrombocytopenia in mice (platelets in peripheral blood); type: in vivo, Balb/C mice; conditions: 2 mg/kg (table), intragastric once a day, x ± s
Procedure: 72 Balb/C mice were selected, weighed, and randomly divided into […] administration groups, i.e. the normal group, the model control group, the icariin group (positive control group), and the icaritin administration groups (high-, medium-, and low-dose groups), with 12 mice in each group. […] On the second day after the model was established, each group was administered with the following therapeutic agents: The normal group: administered intragastrically with the same volume of normal saline; The model control group: administered intragastrically with the same volume of normal saline; The […]: […]; The high-dose icaritin group: […] Example 9; The medium-dose icaritin group: […] Example 9; The low-dose icaritin group: […] Each of the administration groups was administered once a day and fed normally. After establishing the model three times, each administration group was continued to be administered for one week. The mice were anesthetized, and blood was sampled to measure the number of platelets and determine the effect of icaritin on the number of platelets (PLT) in the peripheral blood.

CC(=O)O[C@@]12CO[C@@H]1C[C@H](O)[C@@]1(C)C(=O)[C@H](O)C3=C(C)[C@@H](OC(=O)[C@H](O)[C@@H](NC(=O)OC(C)(C)C)c4ccccc4)C[C@@](O)([C@@H](OC(=O)c4ccccc4)[C@H]21)C3(C)C [Docetaxel, reference compound]
Neutrophils [1]: 0.670 ± 0.12 10^9/L
Platelets [1]: 450.6 ± 30.5 10^9/L
White blood cells [1]: 2.773 ± 0.46 10^9/L
Body weight Before Administration [2]: 21.2 ± 1.8 g

COc1ccc(-c2oc3c(CC=C(C)C)c(O[C@@H]4O[C@H](CO)[C@@H](O)[C@H](O)[C@H]4O)cc(O)c3c(=O)c2O[C@@H]2O[C@@H](C)[C@H](O)[C@@H](O)[C@H]2O)cc1 [Icariin, reference compound]
Platelet count [3]: 571.8 ± 60.6 ×10^9
PLT [4]: 550.6 ± 90.1** 10^9/L
Clotting Time [5]: 4.28 ± 0.61
Bleeding Time [6]: 4.03 ± 0.45
PLT [7]: 850.6 ± 90.1** 10^9/L

Tegafur, Gimeracil and Oteracil Potassium Capsules
Body weight Before Administration [2]: 21.3 ± 2.3 g
